Reference: patent publication US20170281470A1, “METHOD AND APPARATUS FOR DRY GRANULATION” (ATACAMA LABS OY, priority 2006, published 2017)

Test: Agglomeration during storage at room temperature and ambient humidity
Format: physicochemical
Conditions: stored in room temperature and ambient humidity

SMILES: CN(C)C(=N)N=C(N)N [100% metformin fine powder, metformin]
- agglomeration during storage: heavy agglomeration
